Measured values taken from US6034236A, “Method for producing of phthalocyanine compound” (Nippon Shokubai Co., Ltd., priority 1997, dated 2000).

Tests used:
[1] = Visible absorption spectrum (largest absorption wavelength, ε); assay type: physicochemical
[2] = Solubility in 2-ethoxyethanol

Fc1c(F)c(F)c2c(c1F)-c1nc-2nc2[n-]c(nc3nc(nc4[n-]c(n1)c1c(F)c(F)c(F)c(F)c41)-c1c(F)c(F)c(F)c(F)c1-3)c1c(F)c(F)c(F)c(F)c21.[O]=[V+2] [Example 7, hexadecafluorovanadyl phthalocyanine]
Largest absorption wavelength in 1-chloronaphthalene [1]: 710.2 nm | ε at largest absorption wavelength in 1-chloronaphthalene [1]: 1.89 × 10^5 | Largest absorption wavelength in 1-chloronaphthalene ([1]; listed as Example 8): 710.1 nm | ε at largest absorption wavelength in 1-chloronaphthalene ([1]; listed as Example 8): 1.77 × 10^5

Clc1c(Cl)c(Cl)c2c(c1Cl)-c1nc-2nc2[n-]c(nc3nc(nc4[n-]c(n1)c1c(Cl)c(Cl)c(Cl)c(Cl)c41)-c1c(Cl)c(Cl)c(Cl)c(Cl)c1-3)c1c(Cl)c(Cl)c(Cl)c(Cl)c21.[O]=[V+2] [Example 12, hexadecachlorovanadylphthalocyanine]
Largest absorption wavelength in 1-chloronaphthalene [1]: 712.4 nm | ε at largest absorption wavelength in 1-chloronaphthalene [1]: 1.65 × 10^5

[O]=[Ti+2].c1ccc2c(c1)-c1nc-2nc2[n-]c(nc3nc(nc4[n-]c(n1)c1ccccc41)-c1ccccc1-3)c1ccccc21 [Example 13, titanylphthalocyanine]
Largest absorption wavelength in 1-chloronaphthalene [1]: 710.5 nm | ε at largest absorption wavelength in 1-chloronaphthalene [1]: 1.33 × 10^5

octakisphenylthiooctafluorovanadyl phthalocyanine [Example 10]
Largest absorption wavelength in toluene ([1]; in toluene): 770 nm

octaphenoxyoctafluorovanadyl phthalo-cyanine [Example 11]
Largest absorption wavelength in acetone ([1]; in acetone): 720 nm

tetrakis(2-(1,3-dibromo-2-propoxy)-carbonyl-6-phenylphenoxy)dodecafluorovanadyl phthalocyanine [Example 2]
Visible absorption spectrum, Thin film [1]: 731.6 nm | Largest absorption wavelength in 2-ethoxyethanol [1]: 714.5 nm | ε at largest absorption wavelength in 2-ethoxyethanol [1]: 1.75 × 10^5

tetrakis(2-(2-ethoxyethoxy) dodecafluorovanadyl phthalocyanine [Example 14]
Largest absorption wavelength in 2-ethoxyethanol [1]: 709.0 nm | ε at largest absorption wavelength in 2-ethoxyethanol [1]: 1.26 × 10^5

tetrakis(2-(2-ethoxyethoxy)carbonyl-6-methoxyphenoxy)dodecafluorovanadyl phthalocyanine [Example 6]
Solubility in 2-ethoxyethanol [2]: 13 wt. % | Visible absorption spectrum, Thin film [1]: 733.0 nm | Largest absorption wavelength in 2-ethoxyethanol [1]: 715.2 nm | ε at largest absorption wavelength in 2-ethoxyethanol [1]: 1.37 × 10^5

tetrakis(2-(2-methoxyethoxy)carbonyl-6-methylphenoxy)dodecachlorovanadyl phthalocyanine [Example 9]
Visible absorption spectrum, Thin film [1]: 732.0 nm | Largest absorption wavelength in 2-ethoxyethanol [1]: 712.5 nm | ε at largest absorption wavelength in 2-ethoxyethanol [1]: 1.10 × 10^5

tetrakis(2-(2-methoxyethoxy)carbonyl-6-methylphenoxy)dodecafluorovanadyl phthalocyanine [Example 5]
Visible absorption spectrum, Thin film [1]: 732.8 nm | Largest absorption wavelength in 2-ethoxyethanol [1]: 710.4 nm | ε at largest absorption wavelength in 2-ethoxyethanol [1]: 1.32 × 10^5

tetrakis(2-(2-methoxyethoxy)carbonyl-6-phenylphenoxy)dodecafluorovanadyl phthalocyanine [Example 3]
Visible absorption spectrum, Thin film [1]: 730.6 nm | Largest absorption wavelength in 2-ethoxyethanol [1]: 713.7 nm | ε at largest absorption wavelength in 2-ethoxyethanol [1]: 1.42 × 10^5

tetrakis(2-(2-propoxy)carbonyl-6-phenylphenoxy)dodecafluorovanadyl phthalocyanine [Example 1]
Visible absorption spectrum, Thin film [1]: 732.2 nm | Largest absorption wavelength in 2-ethoxyethanol [1]: 715.0 nm | ε at largest absorption wavelength in 2-ethoxyethanol [1]: 1.52 × 10^5

tetrakis(2-(2-tetrahydrofurfuryloxy)-carbonyl-6-phenylphenoxy)dodecafluorovanadyl phthalocyanine [Example 4]
Visible absorption spectrum, Thin film [1]: 732.3 nm | Largest absorption wavelength in 2-ethoxyethanol [1]: 714.7 nm | ε at largest absorption wavelength in 2-ethoxyethanol [1]: 1.22 × 10^5
